Test results reported in BindingDB's records for PubMed 37336067 (State University of Paraiba).

Biological target: Glycylpeptide N-tetradecanoyltransferase 1 (Homo sapiens) (UniProt P30419)
Assay: Inhibition of recombinant N-terminal his-6 tagged human NMT expressed in Escherichia coli BL21 (DE3)pLysS using peptide substrate preincubated for 5 mins followed by substrate addition and measured after 30 mins by scintillation proximity assay

Glycylpeptide N-tetradecanoyltransferase 1 (Homo sapiens), sequence (P30419 whole entry, looked up): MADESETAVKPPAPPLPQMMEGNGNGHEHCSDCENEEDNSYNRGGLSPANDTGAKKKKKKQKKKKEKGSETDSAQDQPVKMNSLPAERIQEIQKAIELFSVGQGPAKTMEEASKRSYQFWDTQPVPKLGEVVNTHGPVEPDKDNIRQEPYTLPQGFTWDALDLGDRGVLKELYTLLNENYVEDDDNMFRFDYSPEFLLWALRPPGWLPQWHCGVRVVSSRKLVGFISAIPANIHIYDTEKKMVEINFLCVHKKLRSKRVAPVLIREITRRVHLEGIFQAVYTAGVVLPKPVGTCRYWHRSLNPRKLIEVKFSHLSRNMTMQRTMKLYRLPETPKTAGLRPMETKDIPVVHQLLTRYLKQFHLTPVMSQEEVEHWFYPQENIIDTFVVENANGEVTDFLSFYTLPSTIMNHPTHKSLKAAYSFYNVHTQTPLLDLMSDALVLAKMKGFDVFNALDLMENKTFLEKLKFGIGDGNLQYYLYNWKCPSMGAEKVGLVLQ

Row | IC50 [µM] | SMILES
1 | 286 | O=C(Nc1nc2ccccc2s1)[C@H]1CC[C@@H](NCc2ccc3ccccc3c2)CC1
2 | 656 | O=C(Nc1nc2cc(F)ccc2s1)[C@H]1CC[C@@H](NCc2ccc3ccccc3c2)CC1
3 | 656 | CN(C)C(=O)c1ccc2nc(NC(=O)[C@@H]3CCC[C@H](NCc4ccc5ccoc5c4)C3)sc2c1
